Target: T1, MAP4K4 (HGK) (Homo sapiens, UniProt O95819)
T1 construct: purchased Thermo Fisher Scientific (Life Technologies) SelectScreen
Experiment: SelectScreen Z'LYTE
Format: biochemical
How it was run: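 SelectScreen broad panel; activity (Z'LYTE, Adapta) plus binding formats. ATP: Km app for CSF1R Z'LYTE; 10 for CAMK1 Adapta. Readout = % per kinase.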

T1 sequence (O95819 whole entry): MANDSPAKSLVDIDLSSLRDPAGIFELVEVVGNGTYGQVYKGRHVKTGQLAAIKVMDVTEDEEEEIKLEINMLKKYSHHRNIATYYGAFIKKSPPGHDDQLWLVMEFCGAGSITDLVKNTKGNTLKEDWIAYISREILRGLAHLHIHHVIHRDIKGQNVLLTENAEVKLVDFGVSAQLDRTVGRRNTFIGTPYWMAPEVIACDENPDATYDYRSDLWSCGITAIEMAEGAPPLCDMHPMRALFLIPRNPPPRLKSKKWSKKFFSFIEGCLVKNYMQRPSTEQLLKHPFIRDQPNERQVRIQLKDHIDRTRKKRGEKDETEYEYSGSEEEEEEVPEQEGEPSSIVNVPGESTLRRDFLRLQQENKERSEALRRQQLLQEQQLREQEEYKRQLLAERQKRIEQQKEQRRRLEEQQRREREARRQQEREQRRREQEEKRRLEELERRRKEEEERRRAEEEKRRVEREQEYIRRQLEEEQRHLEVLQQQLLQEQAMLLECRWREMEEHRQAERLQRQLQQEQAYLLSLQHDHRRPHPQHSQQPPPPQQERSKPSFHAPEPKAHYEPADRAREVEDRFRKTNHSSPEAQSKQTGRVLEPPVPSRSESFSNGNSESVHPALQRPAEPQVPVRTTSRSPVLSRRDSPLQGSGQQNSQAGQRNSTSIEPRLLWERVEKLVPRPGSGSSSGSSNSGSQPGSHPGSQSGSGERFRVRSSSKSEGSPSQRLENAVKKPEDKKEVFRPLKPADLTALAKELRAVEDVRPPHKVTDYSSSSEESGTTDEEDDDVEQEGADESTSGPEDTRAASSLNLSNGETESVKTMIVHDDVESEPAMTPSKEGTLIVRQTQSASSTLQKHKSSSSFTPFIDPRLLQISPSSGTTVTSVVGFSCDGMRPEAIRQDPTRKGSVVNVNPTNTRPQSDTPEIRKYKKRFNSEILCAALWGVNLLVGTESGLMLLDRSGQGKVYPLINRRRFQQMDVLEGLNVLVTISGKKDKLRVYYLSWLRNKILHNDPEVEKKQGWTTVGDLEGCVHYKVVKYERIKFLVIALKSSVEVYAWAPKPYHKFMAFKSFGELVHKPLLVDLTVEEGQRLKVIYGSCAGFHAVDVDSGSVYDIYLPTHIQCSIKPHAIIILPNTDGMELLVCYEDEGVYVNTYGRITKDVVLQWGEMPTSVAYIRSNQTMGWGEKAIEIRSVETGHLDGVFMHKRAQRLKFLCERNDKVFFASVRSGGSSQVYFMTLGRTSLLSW

With `CN(C(=O)CN1CCOCC1)c1ccc2sc3c(-c4cccc5c(=O)cc(N6CC7CCC(C6)O7)oc45)cccc3c2c1` [NU5455] the inhibition at 1 µM was -5.6%.
